In patent US7642252B2, “Angiogenesis inhibition by cephalotaxine alkaloids, derivatives, compositions and uses thereof” (Chemgenex Pharmaceuticals, Inc., priority 2002, dated 2010):
Marks after values point to notes of the source that are not given here.

Assays:
[1] = test system: chorioallantoic membrane (CAM); experiment: Early chicken chorioallantoic membrane (CAM) assay of angiogenesis; assay type: in vivo; details: for CAM increase (fold): Day 4 to Day 5
Method: Fertilized chicken eggs (HiChick Breeding Co, Kapunda, South Australia) were incubated for three days at 38° C. On Day 3 the embryos were cracked out of the egg and into a cup made of plastic piping, with plastic film stretched over the top to form a hammock for the egg to be suspended in. Two ml of DMEM containing penicillin and streptomycin was added to each cup prior to the egg being added. A Petri dish on the top maintained sterility. Incubation continued in a humidified 37° C. incubator.
On Day 4 the chorioallantoic membrane (CAM) begins to grow, and pictures were taken of each embryo at ×5 to measure the CAM area using image analysis software (Video Pro 32, Leading Edge Pty Ltd, South Australia). Embryos were then grouped according to their CAM area, with a control embryo in each for comparison. There were four matched embryos, treated with 6.25, 12.5 and 25 ng of homoharringtonine. Grouping is critical as in these early developmental stages changes in the CAM growth are dramatic. Relatively small differences in size on Day 4 translate to large differences in the CAM on Day 5, making it impossible to compare treatments. Substances were applied in methylcellulose discs, which were first dried under vacuum overnight. The methylcellulose discs were applied to the top of the CAM, and at the beginning of treatment were at least three to four-fold bigger than the CAM area, meaning treatment covered the entire CAM surface.
On Day 5 skim milk with contrast medium was injected into the CAM. Pictures were then taken at various levels of magnification up to ×63. Quantitative measurements were made from ×5 pictures. CAM area, and vein and artery lengths were measured using image analysis (Video Pro 32, Leading Edge Pty Ltd, South Australia). Relative vessel lengths were then calculated as the total length/CAM area. Statistical analysis was made using SigmaStat and OneWay ANOVA with p<0.05 as the level of significance.
The normal organization of the CAM is uniform, with the major vein draining towards the left, and the artery branches coming over the edge of the top and bottom of the CAM. FIG. 3 schematically illustrates tracing of the vein and artery branches, as performed for the measurement of vessel lengths.
The angiogenic inhibitor, homoharringtonine, was obtained from ChemGenex Therapeutics, Inc. (Menlo Park, Calif.) and was made to the appropriate concentration in sterile water. […] Homoharringtonine was applied at 6.25, 12.5 and 25 ng (11.3, 22.5 and 45 nM) doses, and compared with water treated controls. Homoharringtonine reduced the growth of the CAM to 42% of the control in the 25 ng treated CAM. […] The vein, artery and total vessel lengths were reduced to 15%, 18% and 17% of control, respectively.

[2] = test system: chorioallantoic membrane (CAM); experiment: as above; assay type: in vivo; details: taxol treated CAM, dose not given
[3] = 6.25 ng, Day 5, mean ± SEM, n = 6
[4] = 25 ng, Day 5, mean ± SEM, n = 6

## COC(=O)C[C@](O)(CCCC(C)(C)O)C(=O)O[C@@H]1C(OC)=C[C@]23CCCN2CCc2cc4c(cc2[C@H]13)OCO4 [Homoharringtonine, cephalotaxine, 4-methyl-2-hydroxy-2-(4-hydroxy-4-methylpentyl) butanediocate ester]
[1]; 6.25 ng, mean ± SEM, n = 6
  CAM increase (fold): 7.0 ± 0.4^a fold
[1]; [3]
  Artery length: 1573 ± 516 pixels
  Relative artery length: 31.6 ± 4.5^ab length/CAM area
  Relative total vessel length: 63.2 ± 7.7^b length/CAM area
  Relative vein length: 31.6 ± 4.6^b length/CAM area
  Vein length: 1482 ± 499 pixels
[1]; 12.5 ng, Day 5, mean ± SEM, n = 6
  Relative artery length: 31.8 ± 3.7^ab length/CAM area
[1]; 25 ng dose
  Embryo lethality: killed one of the smaller embryos
[1]; 25 ng, mean ± SEM, n = 6
  CAM increase (fold): 4.3 ± 0.7^a fold
[1]; [4]
  Artery length: 551 ± 265^a pixels
  Total vessel length: 909 ± 396^a pixels
  Vein length: 359 ± 143^a pixels
[1]; initial doses (higher than 25 ng, not given)
  Embryo lethality: resulted in the death of the embryos

## CC(=O)O[C@H]1C(=O)[C@@]2(C)[C@H]([C@H](OC(=O)c3ccccc3)[C@]3(O)C[C@H](OC(=O)[C@H](O)[C@@H](NC(=O)c4ccccc4)c4ccccc4)C(C)=C1C3(C)C)[C@]1(OC(C)=O)CO[C@@H]1C[C@@H]2O [taxol]
[2]
  Qualitative changes of CAM at higher magnification (FIG. 5): diffuse leakage of the red blood cells outside the vessels and the skeletons of larger vessels with no remaining blood flow
